The text below walks through data of ChEMBL document CHEMBL1147442, “Epimerisation of lutein to 3'-epilutein in processed foods” (2004).

Structures are written as SMILES.

What all share (type): functional
Assay [1] deals with Rumex acetosa. As to the kind of experiment: Ratio in microwaved sorrel was determined.
The test system of assay [2] is Rumex acetosa. Briefly: Ratio in boiled sorrel was determined.
For assay [3], the system named is Capsicum. As to the kind of experiment: Ratio in baked paprika was determined.
Assay [4] deals with Rubus. Briefly: Ratio in botteled blackberries was determined.
The subject of assay [5] is Rumex acetosa. As to the kind of experiment: Ratio in steamed sorrel was determined.
The test system of assay [6] is Rumex acetosa. As to the kind of experiment: Ratio in stewed sorrel was determined.
In assay [7] the test system is Prunus domestica. As to the kind of experiment: Ratio in bottled plum was determined.
Assay [8] relates to Capsicum. As to the kind of experiment: Ratio in pickled paprika was determined.
Assay [9] has as its system Anethum graveolens. As to the kind of experiment: Ratio in pickled dill was determined.
Assay [10] concerns Prunus domestica. Briefly: Ratio in raw plum was determined.
The test system of assay [11] is Rubus. Briefly: Ratio in raw blackberries was determined.
The subject of assay [12] is Rumex acetosa. Briefly: Ratio in raw sorrel was determined.
In assay [13] the test system is Capsicum. As to the kind of experiment: Ratio in raw paprika was determined.

For `CC1=C[C@@H](O)CC(C)(C)[C@H]1/C=C/C(C)=C/C=C/C(C)=C/C=C/C=C(C)/C=C/C=C(C)/C=C/C1=C(C)C[C@@H](O)CC1(C)C`, the Ratio in assay [1] is 6.4%; in [2], 9%; in assay [3] it was 3.8%; in [4], 17.4%; in assay [5], 9.2%; in assay [6], 8.8%. The results for the Ratio in assay [7], in assay [8] and in assay [9] were 7%, 12.5% and 13.8%, respectively.
Regarding `C=C1C=CCC(C)(C)[C@H]1/C=C/C(C)=C/C=C/C(C)=C/C=C/C=C(C)/C=C/C=C(C)/C=C/C1=C(C)C[C@@H](O)CC1(C)C`, the Ratio was 5% in assay [1]; 6.5% in assay [2]; 5.1% in [3]; 7.9% in assay [4]; 11.3% in assay [5]; 8% in assay [6]. Moreover, the Ratio stood at 4.7% in assay [7], 2.2% in assay [8] and 3% in assay [9].
Take `CC1=C[C@H](O)CC(C)(C)[C@H]1/C=C/C(C)=C/C=C/C(C)=C/C=C/C=C(C)/C=C/C=C(C)/C=C/C1=C(C)C[C@@H](O)CC1(C)C` [LUTEIN]: the Ratio in [10] worked out at 34.2%; in assay [1], 24%; in [2] it was 28.6%; in assay [3], 47.5%; in assay [11] it was 58.6%; in assay [4], 37.4%. Besides, the Ratio in assay [5] came out at 12.7%; in assay [6], 16.4%; in assay [12], 36%; in assay [7] it was 29.3%; in assay [13] it was 53.5%; in [8] it was 49.2%. The Ratio in [9] was determined as 28.7%.
